US20150126467A1, “USE OF ALGINATE OLIGOMERS TO ENHANCE THE EFFECTS OF ANTIFUNGAL AGENTS” (AlgiIPharma AS, priority 2011, published 2015)
Values after ≈ are worked out from the molar mass of the structure shown. Where two headings read alike, the source gives them in different places.

What was measured:
[1] = test system: C. tropicalis 250/03 (candidosis); experiment: Standard MIC testing in RPMI medium (Example 3); type: cell-based; settings: Candida tropicalis, 48 h, read-out: Minimum Inhibitory Concentration (MIC)
Description: The Minimum Inhibitory Concentration assay used in this Example was based on Jorgensen et al. (Manual of Clinical Microbiology, 7th ed. Washington, D.C: American Society for Microbiology, 1999; 1526-43). Following retrieval from −80° C. storage, fungal colonies were grown on blood agar with 5% sheep blood and were used to inoculate tryptone soya broth (TSB) for overnight growth. […] Fungal cultures at 0.5 McFarland standard were diluted ten-fold in RPMI medium and 5 μl added to the media containing wells of the microtiter plates. Plates were wrapped in parafilm and incubated at 34° C. for 48 hours. MIC values were determined as the lowest concentration at which there was no visible growth.

[2] = test system: C. lusitaniae 994/01(2) (candidosis); experiment: Standard MIC testing in RPMI medium (Example 3); type: cell-based, Candida lusitaniae; settings: 48 h
Description: Following retrieval from −80° C. storage, fungal colonies were grown on blood agar with 5% sheep blood and were used to inoculate tryptone soya broth (TSB) for overnight growth. […] Fungal cultures at 0.5 McFarland standard were diluted ten-fold in RPMI medium and 5 μl added to the media containing wells of the microtiter plates. Plates were wrapped in parafilm and incubated at 34° C. for 48 hours. MIC values were determined as the lowest concentration at which there was no visible growth.

Question: What does the source list for OC(Cn1cncn1)(Cn1cncn1)c1ccc(F)cc1F [Fluconazole, fluconazole]?
Answer: MIC ([1]; 0% OligoG): 4 µg/mL (≈ 13.1 µM); MIC ([1]; 2% OligoG): 4 µg/mL (≈ 13.1 µM); MIC ([1]; 6% OligoG): 4 µg/mL (≈ 13.1 µM); MIC ([1]; 10% OligoG): 2 µg/mL (≈ 6.53 µM); Minimum Inhibitory Concentration (MIC) ([2]; 0% OligoG): 2 µg/mL; Minimum Inhibitory Concentration (MIC) ([2]; 6% OligoG): 2 µg/mL; Minimum Inhibitory Concentration (MIC) ([2]; 10% OligoG): 2 µg/mL; MIC ([2]; Clavispora lusitaniae, 2% OligoG, read-out: Minimum Inhibitory Concentration (MIC)): 2 µg/mL (≈ 6.53 µM)
